One test has as its system db/db mice. Put plainly: Measurement of plasma glucose concentration in obesity type diabetes model db/db mice. It counts as in vivo. The following applies: Mus musculus, po; plasma glucose 1 and 3 hr after administration, after fasting for 4 hr; significant difference vs solvent group (Dunnett's test); read-out: Minimum effective dose db/db mouse. The protocol: Measurement Method of Plasma Glucose Concentration
Using obesity type diabetes model db/db mice, the effect of the compound (1) of the present invention on glucose concentration in plasma was examined. The glucose concentration in the plasma of db/db mice (10-15 weeks of age) was measured, and the mice were grouped into 5 mice per group such that the average glucose concentration of plasma is leveled. After fasting for 4 hr, the test drug or a solvent (0.5% methyl cellulose) was orally administered to db/db mice, and plasma glucose concentration at 1 and 3 hr after the administration was measured. The hypoglycemic effect of the test drug was evaluated by detecting a significant difference every hour between the solvent administration group and the test drug administration group (Dunnett's test).

Test [1] addresses T1, recombinant human liver glycogen phosphorylase (HLGPa) (Homo sapiens, UniProt P06737).
T1 construct: made in house; host or cells: Sf9 insect cells (unpurified cell lysate used as enzyme solution)
T1 sequence (P06737 1-847): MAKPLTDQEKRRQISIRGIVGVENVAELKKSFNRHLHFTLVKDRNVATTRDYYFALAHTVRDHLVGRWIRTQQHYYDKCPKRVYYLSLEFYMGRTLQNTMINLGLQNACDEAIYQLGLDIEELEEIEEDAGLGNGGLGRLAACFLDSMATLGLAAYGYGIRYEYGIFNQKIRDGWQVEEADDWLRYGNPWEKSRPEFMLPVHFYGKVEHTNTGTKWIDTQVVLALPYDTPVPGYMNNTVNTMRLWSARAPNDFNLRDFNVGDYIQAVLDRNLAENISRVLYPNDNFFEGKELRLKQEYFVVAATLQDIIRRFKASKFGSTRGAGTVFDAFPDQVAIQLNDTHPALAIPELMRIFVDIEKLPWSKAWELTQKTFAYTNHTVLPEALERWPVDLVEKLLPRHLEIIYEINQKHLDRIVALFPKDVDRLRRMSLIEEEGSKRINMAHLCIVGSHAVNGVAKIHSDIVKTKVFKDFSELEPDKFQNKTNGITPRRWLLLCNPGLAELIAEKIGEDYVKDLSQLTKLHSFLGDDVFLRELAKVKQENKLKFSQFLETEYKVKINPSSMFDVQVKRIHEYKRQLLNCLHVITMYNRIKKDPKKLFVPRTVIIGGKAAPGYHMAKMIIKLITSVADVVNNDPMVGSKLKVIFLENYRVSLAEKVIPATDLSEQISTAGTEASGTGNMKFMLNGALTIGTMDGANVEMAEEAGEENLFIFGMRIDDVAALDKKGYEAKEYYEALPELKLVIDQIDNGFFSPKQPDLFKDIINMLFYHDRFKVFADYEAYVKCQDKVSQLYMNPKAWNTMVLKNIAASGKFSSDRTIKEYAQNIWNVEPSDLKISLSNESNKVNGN
Put plainly: Measurement of liver glycogen phosphorylase activity (enzyme inhibitory activity against HLGPa). The test is classed as biochemical. The note with it: Sf9 cell lysate expressing recombinant enzyme; reverse reaction (glycogen synthesis from G1-P), phosphate by malachite green, 60 min room temperature. Put shortly: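 Activity was run in the reverse, glycogen-synthesis direction, using Sf9 lysate expressing recombinant human liver glycogen phosphorylase (enzyme solution 80 μg/mL protein, pH 7.0). Substrate solution was Tris pH 7.2 with 1.25 mM glucose-1-phosphate, 2.5 mg/ml glycogen and 7.5 mM glucose, reacted 60 min at room temperature. Released phosphate was measured by malachite green A650, with % inhibition taken against DMSO control and no-enzyme blank.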

Each structure is given as a SMILES string.

By IC50 is commonly meant the point on the concentration scale where inhibition reaches its midpoint.

In the case of `Cl.N=C(NNC(=O)c1cc2cc(Cl)ccc2[nH]1)c1ccccc1F` [Example 6-19, 5-chloro-1H-indole-2-carboxylic acid 2-((2-fluorophenyl)-imino-methyl)hydrazide hydrochloride], the minimal effective dose in the test on db/db mice is 3 mg/kg. Besides, the IC50 in test [1] was determined as 53 nM.
For `CS(=O)(=O)O.N=C(NNC(=O)c1cc2cc(Cl)ccc2[nH]1)c1ccccc1` [Example 6-17, 5-chloro-1H-indole-2-carboxylic acid 2-(imino-phenyl-methyl)hydrazide methanesulfonate], the minimal effective dose in the test on db/db mice was determined as 3 mg/kg. Further, the IC50 in test [1] is 80 nM.
In the case of `Nc1ccccc1C(=O)NNC(=O)c1cc2cc(Cl)ccc2[nH]1` [Example 1-2, 2-Aminobenzoic acid 2-(5-chloro-1H-indole-2-carbonyl)hydrazide], in the test with db/db mice, the minimal effective dose stood at 10 mg/kg. Further, the IC50 in test [1] was 13 nM.
The matching figures for `O=C(NNC(=O)c1cc2cc(Cl)ccc2[nH]1)c1c[nH]cn1` [Example 1-81, 1H-imidazole-4-carboxylic acid 2-(5-chloro-1H-indole-2-carbonyl)hydrazide]: 10 mg/kg and 28 nM.

(Values after US20050054696A1, “Indole compounds and medicinal use thereof” (priority 2001, published 2005).)
